# How the values were obtained:
# pancreatic cancer = details: cited from earlier work
# [1] = Drug release rate into 50:50 DMSO:water release media, HPLC; type: physicochemical; details: for completeness of release after 7 days / course of release (plateau): FOLFIRINOX components from device, FIG. 5; for course of release (plateau): over 7 days
# Experimental: Drug release rate was measured using 50 mL of release media consisting of 50:50 DMSO:water to ensure that all drugs in the composition remained under sink conditions. Each device was suspended above the release media in a 50 mL sealed Duran bottle with only the permeable release zone in contact with the release media. The Duran bottle was subsequently placed in a shaking incubator at 37° C. and 60 RPM. 5 mL samples of release media were removed and replaced with 5 mL of fresh media either every day for 6 days or at day 1, 3, 5 and 7. The samples were analysed for drug concentration using HPLC.
# Release of the drug oxaliplatin by (i) an exposed sponge and (ii) a device according to the present invention was compared. The sponge was a gelatin sponge exposed to 50 mL of release media consisting of 50:50 DMSO. The sponge had the proportions 5 mm×10 mm×10 mm. […] The implantable device according to the invention contained a sponge within the enclosed space. Drug release was determined according to the methodology outlined above.
# Release of the drug components of the FOLFIRINOX regimen from a device according to the invention was investigated. […] The implantable device according to the invention contained a sponge within the enclosed space. Drug release was determined according to the methodology outlined above.
# The release of the drug irinotecan over 6 days through various membranes for use as the permeable release zone was investigated, to show how the device of the invention provides the skilled person with control over the release profile for the drug, by varying properties of the membrane.
# [2] = 1 mm EVA membrane, no pores, 75% infill
structure (smiles),measurement,setting,value
Nc1ccn([C@@H]2O[C@H](CO)[C@@H](O)C2(F)F)c(=O)n1 [gemcitabine],median disease-free survival,"pancreatic cancer; Conroy et al (2018), patients after surgery",12.8 months
same,disease-free survival rate at 3 years,pancreatic cancer; Conroy et al (2018),21.4%
same,median overall survival,pancreatic cancer; Conroy et al (2018),35.0 months
same,overall survival rate at 3 years,pancreatic cancer; Conroy et al (2018),48.6%
same,"adverse events of grade 3 or 4, share of patients",pancreatic cancer; Conroy et al.,52.9%
Nc1nc2c(c(=O)[nH]1)N(C=O)C(CNc1ccc(C(=O)N[C@@H](CCC(=O)O)C(=O)O)cc1)CN2 (stereo partly drawn) [leucovorin],completeness of release after 7 days,[1]; [2],still not complete
same,course of release (plateau),[1]; [2],began to plateau after three days
CCc1c2c(nc3ccc(OC(=O)N4CCC(N5CCCCC5)CC4)cc13)-c1cc3c(c(=O)n1C2)COC(=O)[C@]3(O)CC [irinotecan],"release rate, membrane pore sizes 3 mm, 4 mm and 5 mm","[1]; 4 pores each, over 6 days, FIG. 6D",as pore size increased the rate of release also increased
same,completeness of release after 7 days,[1]; [2],still not complete
same,course of release (plateau),[1]; [2],began to plateau after three days
same,release character across all membranes investigated,"[1]; device, over 6 days",useful sustained release
same,"release rate, membrane thickness 1 mm versus 2 mm","[1]; device, over 6 days, FIG. 6A",released faster through the membrane with a thickness of 1 mm
same,"release rate, 3D printed membrane infill 50%, 75% and 100%","[1]; device, over 6 days, FIG. 6B","as the percentage infill increased, the release rate slowed"
same,"release rate, membranes with one, two or four pores","[1]; pores 3 mm diameter, over 6 days, FIG. 6C",as the number of pores increased the rate of release also increased
O=C1[O][Pt]2([NH][C@@H]3CCCC[C@H]3[NH]2)[O]C1=O [oxaliplatin],completeness of release after 7 days,[1]; [2],still not complete
same,course of release (plateau),[1]; [2],began to plateau after three days
same,completeness of release at 7 days (168 hours),"[1]; device, 1 mm EVA membrane, no pores, 75% infill, sponge inside, FIG. 4",not complete
same,release plateau,"[1]; device, 1 mm EVA membrane, no pores, 75% infill, after 5 days, FIG. 4",75%
same,time to complete release,"[1]; exposed gelatin sponge (comparative), FIG. 3",≤ 7 h
O=c1[nH]cc(F)c(=O)[nH]1 [fluorouracil],completeness of release after 7 days,[1]; [2],still not complete
same,course of release (plateau),[1]; [2],began to plateau after three days
